Assay results from patent publication US20250170133A1, “PHARMACEUTICAL COMBINATIONS AND METHODS OF USE OF AMINO-PYRROLOPYRIMIDINONE COMPOUND” (Merck Sharp & Dohme LLC, priority 2022, published 2025).

Assays:
BCL-2 and BCL-xL = assay: BH3 profiling of primary CLL cells from nemtabrutinib treated patients (cytochrome c release); assay type: cell-based, human; settings: samples from 3 nemtabrutinib treated patients, co-cultured with NK Tert stromal cells
From the text: For FIG. 1F, primary CLL cells from nemtabrutinib treated patients were co-cultured with NK Tert stromal cells before performing BH3 profiling using BIM, BAD, MS-1, Y4ek, and PUMA2A peptides. Baseline cytochrome c release measured in DMSO treated cells has been subtracted from all test conditions and controls presented. Cytochrome c release in response to interaction with BIM, BAD, and Y4ek peptides indicates cellular dependency on BCL-2 and BCL-xL. A linear mixed effect model was used to analyze raw data and p values were adjusted for multiple comparisons using Tukey's method. All statistics represented are in comparison to DMSO treated control (*, p<0.05, **, p<0.01, ***, p<0.001).

Primary CLL cells = assay: Primary CLL cell viability by flow cytometry following Annexin V/PI staining; assay type: cell-based, human; settings: BTKi 1 μM added to venetoclax 5 nM; ibrutinib washed out after 1 hr; total incubation 24 hr
Description: Cell viability was assessed by flow cytometry following Annexin V/PI staining. Data are normalized to DMSO control. A linear mixed effect model was used to analyze raw data and p values were adjusted for multiple comparisons using Tukey's method (*, p<0.05, **, pS0.01, ***, pS0.001).

BTK's downstream targets = settings: cited from earlier work
[1] = system: BTK^Y223 autophosphorylation; assay: Immunoblot of anti-IgM stimulated primary CLL cells: pBTK; assay type: cell-based, human; settings: ibrutinib (1 μM), 24 hr, anti-IgM 15 min, normalized to GAPDH
ERK phosphorylation = assay: Immunoblot of anti-IgM stimulated primary CLL cells: pERK; assay type: cell-based, human; settings: nemtabrutinib vs ibrutinib (1 μM), 24 hr, anti-IgM 15 min, normalized to GAPDH
Description: The effects of combining venetoclax and BTKi's on BCR signaling can be seen in FIG. 1B. […] Cells were stimulated with 10 μg plate-bound anti-IgM for 15 min before collection of whole cell lysate and analysis using SDS-PAGE.
For FIG. 1C to IE, all immunoblots of primary CLL patient samples were quantified using densitometry software (AlphaView). Protein levels (FIG. 1C: pBTK, FIG. 1D: pERK, FIG. 1E: MCL-1) normalized to GAPDH loading control are reported as fold change over vehicle control. A linear mixed effect model was used to analyze raw data normalized to GAPDH loading control and p values were adjusted for multiple comparisons using Tukey's method (*, p<0.05, ** p<0.01, ***, p<0.001).

[2] = system: Eμ-TCL1 adoptive transfer CLL mouse model; assay: Eμ-TCL1 adoptive transfer CLL mouse model, survival; assay type: in vivo, C57BL/6NTac mice; settings: daily oral gavage; venetoclax 100 mg/kg, nemtabrutinib 75 mg/kg, ibrutinib 25 mg/kg; 48 mice with BCR-dependent disease
From the text: (Bichi R, et al. Proc Natl Acad Sci USA. 2002; 99(10):6955-60). For FIG. 2A, splenocytes from a Eμ-TCL1 donor mouse were engrafted into 93 C57BL/6NTac mice via tail vein injection. Recipient mice were randomly enrolled into treatment groups after developing CD5+CD19+ disease as assessed by flow cytometry of peripheral blood. […] Due to the large study size, splenocytes from multiple E-TCL1 donors were needed to engraft C57BL/6NTac mice. Splenocytes from 4 donors were engrafted into groups of 48, 25, 17, and 3 recipient mice, respectively.
Peripheral blood disease progression was monitored weekly via flow cytometry and was reported as % CD5+CD19+ of CD45+ cells. (FIG. 2B). […] The survival differences of 48 mice engrafted with splenocytes from a single donor with BCR-dependent disease were assessed.

O=C(c1ccc(Oc2ccccc2)cc1Cl)c1c[nH]c2ncnc(N[C@@H]3CC[C@@H](CO)OC3)c12 [nemtabrutinib]
cytochrome c release in response to BIM, BAD and Y4ek peptides (BCL-2 and BCL-xL): maintain dependence on BCL2 and BCL-xL
increase in cytotoxicity compared to venetoclax alone (Primary CLL cells): 10%
inhibition of BTK's downstream targets compared to ibrutinib (BTK's downstream targets): greater inhibition
autophosphorylation of BTK^Y223 vs stimulated vehicle [1]: significantly inhibited
ERK phosphorylation (ERK phosphorylation): inhibited to a more significant degree
median survival [2]: 81.5 days

CC1(C)CCC(CN2CCN(c3ccc(C(=O)NS(=O)(=O)c4ccc(NCC5CCOCC5)c([N+](=O)[O-])c4)c(Oc4cnc5[nH]ccc5c4)c3)CC2)=C(c2ccc(Cl)cc2)C1 [venetoclax, reference compound]
median survival [2]: 34.5 days
